Measured values: PMC6592956, “Characterization of Porcine Hepatic and Intestinal Drug Metabolizing CYP450: Comparison with Human Orthologues from A Quantitative, Activity and Selectivity Perspective” (Scientific Reports, 2019)
Entries after “also recorded” stand apart in the source; their conditions may differ. Marks after values point to notes of the source that are not given here.

Experiments:
CYP2A [1] = test system: CYP2A; design: method as in Cyrus et al., 2011 and references herein; details: human; ref Cyrus et al., 2011 and references herein; cited from earlier work
CYP2D [2] = target: T1, CYP2D (Sus scrofa, UniProt O46658); test: Incubation with inhibitors: DXM-O-demethylation in porcine hepatic microsomes; type: in vitro ADME, conventional pig; details: for Ratio of residual activity (substrate + inhibitor versus substrate only), CYP2D DXM: DXM 10 µM, inhibitors SFZ 0.5, α-NFV 0.1 (1 µM), QND 0.1, KET 0.3, DDC 20, 8-MPS 1 µM, mean (SD) of 3; for Inhibition of DXM-O-demethylation by inhibitor: porcine hepatic microsomes
T1 construct: from tissue; host or cells: pig liver microsomes
T1 sequence (O46658 1-500): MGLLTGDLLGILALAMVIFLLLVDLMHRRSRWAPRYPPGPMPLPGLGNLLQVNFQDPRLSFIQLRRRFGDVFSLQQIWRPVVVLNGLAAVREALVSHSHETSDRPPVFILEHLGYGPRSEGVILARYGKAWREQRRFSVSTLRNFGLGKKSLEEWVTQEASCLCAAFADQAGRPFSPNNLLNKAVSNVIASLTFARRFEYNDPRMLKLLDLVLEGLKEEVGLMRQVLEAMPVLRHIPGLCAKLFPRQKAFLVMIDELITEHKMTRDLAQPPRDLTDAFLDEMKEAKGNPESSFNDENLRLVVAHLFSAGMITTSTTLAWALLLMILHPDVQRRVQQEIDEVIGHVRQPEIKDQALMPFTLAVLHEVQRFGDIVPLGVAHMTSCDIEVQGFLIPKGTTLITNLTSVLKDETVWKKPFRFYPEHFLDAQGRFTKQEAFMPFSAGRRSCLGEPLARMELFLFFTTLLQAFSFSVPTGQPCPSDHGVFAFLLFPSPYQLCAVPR
Method: (§1) The inhibitors used were α-NFV, 8-MPS, KET, SFZ, QND, and DDC for CYP1A/2 A, CYP2A, CYP3A, CYP2C, CYP2D, and CYP2E1, respectively. […] All incubations were performed in triplicate.

CYP2A [3] = test: Incubation with inhibitors: CM-hydroxylation in porcine hepatic microsomes; type: in vitro ADME, conventional pig; details: for Ratio of residual activity (substrate + inhibitor versus substrate only), CYP2A CM: CM 1 µM, inhibitors SFZ 0.5, α-NFV 0.1 (1 µM), QND 0.1, KET 0.3, DDC 20, 8-MPS 1 µM, mean (SD) of 3
Method: as §1

CYP3A [4] = test: Incubation with inhibitors: MDZ-hydroxylation in porcine hepatic microsomes; type: in vitro ADME, conventional pig; details: for Ratio of residual activity (substrate + inhibitor versus substrate only), CYP3A MDZ: MDZ 20 µM, inhibitors SFZ 0.5, α-NFV 0.1 (1 µM), QND 0.1, KET 0.3, DDC 20, 8-MPS 1 µM, mean (SD) of 3
Method: as §1

CYP2E1 = test system: CYP2E1; design: method as in Baranovà et al., 2005; Pratt-hyatt et al., 2010; details: human; ref Baranovà et al., 2005; Pratt-hyatt et al., 2010; cited from earlier work
CYP1A = test: Incubation with inhibitors: PH-O-deethylation in porcine hepatic microsomes; type: in vitro ADME, conventional pig; details: PH 20 µM; inhibitors SFZ 0.5, α-NFV 0.1 (1 µM), QND 0.1, KET 0.3, DDC 20, 8-MPS 1 µM; mean (SD) of 3
Method: as §1

CYP2C = details: for Ratio of residual activity (substrate + inhibitor versus substrate only), CYP2C TB: TB 200 µM, inhibitors SFZ 0.5, α-NFV 0.1 (1 µM), QND 0.1, KET 0.3, DDC 20, 8-MPS 1 µM, mean (SD) of 3
CYP2E = test: Incubation with inhibitors: CZ-hydroxylation in porcine hepatic microsomes; type: in vitro ADME, conventional pig; details: for Ratio of residual activity (substrate + inhibitor versus substrate only), CYP2E CZ: CZ 50 µM, inhibitors SFZ 0.5, α-NFV 0.1 (1 µM), QND 0.1, KET 0.3, DDC 20, 8-MPS 1 µM, mean (SD) of 3; for Inhibition of CZ-hydroxylation by inhibitor: porcine hepatic microsomes
Method: as §1

CYP3A [5] = details: human; ref Cyrus et al., 2011 and references herein; cited from earlier work
porcine CYP450 = details: outcome of general decision tree, Figure 4
human CYP450 = details: Supplementary Table 4; ref Yuan et al., 2002 and references herein; cited from earlier work
[6] = test system: hepatic CYP450 abundancies; test: Pearson correlation between hepatic CYP450 abundancies and probe activities
[7] = test system: porcine intestinal CYP450 enzymes
[8] = test system: porcine intestinal CYP450 enzymes; test: in vitro; details: pig, pool of 16 pigs, n=3, mean (SD)
CYP2D [9] = test system: CYP2D; design: method as in Cyrus et al., 2011 and references herein; details: human; ref Cyrus et al., 2011 and references herein; cited from earlier work
porcine CYP2D25 = test system: porcine CYP2D25; design: method as in Skaanild, 2006; Hosseinpour and Wikvall, 2000; details: ref Skaanild, 2006; Hosseinpour and Wikvall, 2000; cited from earlier work
CYP2D6 = test system: CYP2D6; design: method as in Cyrus et al, 2011; details: ref Cyrus et al, 2011; cited from earlier work

## COc1c2occc2cc2ccc(=O)oc12 [8-methoxypsoralen]
CYP2A [1]
  Ki: 100 to 1500 nM

## CCN(CC)C(=S)S [Diethyldithiocarbamate, diethyldithiocarbamate]
CYP2D [2]
  Ratio of residual activity (substrate + inhibitor versus substrate only), CYP2D DXM: 0.93 (0.084)
CYP2A [3]
  Ratio of residual activity (substrate + inhibitor versus substrate only), CYP2A CM: 0.74 (0.079)
CYP2A [3]; porcine hepatic microsomes
  Inhibition of CM-hydroxylation by inhibitor: decreased
CYP3A [4]
  Ratio of residual activity (substrate + inhibitor versus substrate only), CYP3A MDZ: 1.15 (0.074)
CYP2E1
  Ki: 12200 to 38000 nM
CYP1A
  Ratio of residual activity (substrate + inhibitor versus substrate only), CYP1A PH: 1.04 (0.010)
CYP2C
  Ratio of residual activity (substrate + inhibitor versus substrate only), CYP2C TB: 0.87 (0.046)
CYP2C; porcine hepatic microsomes
  Inhibition of TB-hydroxylation by inhibitor: decreased
CYP2E
  Ratio of residual activity (substrate + inhibitor versus substrate only), CYP2E CZ: 0.87 (0.003)-
  Inhibition of CZ-hydroxylation by inhibitor: decreased

## CC(=O)N1CCN(c2ccc(OCC3COC(Cn4ccnc4)(c4ccc(Cl)cc4Cl)O3)cc2)CC1 (centres unmarked) [Ketoconazole, ketoconazole]
CYP2D [2]
  Inhibition of DXM-O-demethylation by inhibitor: could not inhibit
CYP3A [4]; porcine hepatic microsomes
  Effect of inhibitor on MDZ-hydroxylation: potent inhibitors
CYP2E
  Inhibition of CZ-hydroxylation by inhibitor: 20%
CYP3A [5]
  Ki: […]

## Cc1ncc2n1-c1ccc(Cl)cc1C(c1ccccc1F)=NC2 [MDZ, Midazolam]
Porcine CYP450
  Enzyme involvement: High affinity: CYP3A
Human CYP450
  Km: 3 to 5 µM
[6]; level 1 (MDZ 0.50 µM)
  Pearson's correlation coefficient, MDZ activity vs hepatic CYP3A22 abundance: 0.54
[6]; level 2 (MDZ 2.00 µM)
  Pearson's correlation coefficient, MDZ activity vs hepatic CYP3A22 abundance: 0.62
[6]; level 3 (MDZ 5.00 µM)
  Pearson's correlation coefficient, MDZ activity vs hepatic CYP3A22 abundance: 0.69*
[6]; level 4 (MDZ 10.0 µM)
  Pearson's correlation coefficient, MDZ activity vs hepatic CYP3A22 abundance: 0.71*
[6]; level 5 (MDZ 20.0 µM)
  Pearson's correlation coefficient, MDZ activity vs hepatic CYP1A2 abundance: 0.51
  Pearson's correlation coefficient, MDZ activity vs hepatic CYP3A22 abundance: 0.72*
  Pearson's correlation coefficient, MDZ activity vs hepatic CYP3A46 abundance: 0.57
[6]; level 6 (MDZ 50.0 µM)
  Pearson's correlation coefficient, MDZ activity vs hepatic CYP1A2 abundance: 0.56
  Pearson's correlation coefficient, MDZ activity vs hepatic CYP3A22 abundance: 0.65*
  Pearson's correlation coefficient, MDZ activity vs hepatic CYP3A46 abundance: 0.68*
[7]; duodenal microsomes, pool of 16 pigs, n=3, mean (SD)
  Duodenum a (Hill coefficient): 1.26 (0.048)
[7]; ileal microsomes, pool of 16 pigs, n=3, mean (SD)
  Ileum a (Hill coefficient): 1.56 (0.45)
[7]; intestinal versus hepatic microsomes
  Vmax in intestinal microsomes as % of the hepatic Vmax: 2%
[7]; jejunal microsomes, pool of 16 pigs, n=3, mean (SD)
  Jejunum a (Hill coefficient): 1.41 (0.043)
[8]; Duodenum Km, duodenal microsomes
  Km at 10 min: 22.1 µM
[8]; Ileum Km, ileal microsomes
  Km at 10 min: 16.2 µM
[8]; Jejunum Km, jejunal microsomes
  Km at 10 min: 23.1 µM

## C=C[C@H]1C[N@@]2CC[C@H]1C[C@@H]2[C@@H](O)c1ccnc2ccc(OC)cc12 [Quinidine, quinidine]
CYP2D [2]; listed as QND
  Inhibition of DXM-O-demethylation by inhibitor: did not inhibit; also recorded: no inhibition
CYP2D [9]
  Ki: 30 to 400 nM
Porcine CYP2D25
  Inhibition of porcine CYP2D25: not to inhibit

## Nc1ccc(S(=O)(=O)Nc2ccnn2-c2ccccc2)cc1 [Sulphaphenazole, sulphaphenazole]
CYP2D [2]
  Ratio of residual activity (substrate + inhibitor versus substrate only), CYP2D DXM: 0.97 (0.080)
CYP2A [3]
  Ratio of residual activity (substrate + inhibitor versus substrate only), CYP2A CM: 1.05 (0.023)
CYP3A [4]
  Ratio of residual activity (substrate + inhibitor versus substrate only), CYP3A MDZ: 1.20 (0.050)
CYP2D6
  Inhibition of CYP2D6 in men: do not significantly inhibit
CYP1A
  Ratio of residual activity (substrate + inhibitor versus substrate only), CYP1A PH: 1.09 (0.030)
CYP2C
  Ratio of residual activity (substrate + inhibitor versus substrate only), CYP2C TB: 0.98 (0.135)
CYP2E
  Ratio of residual activity (substrate + inhibitor versus substrate only), CYP2E CZ: 1.03 (0.061)
